Data published in ChEMBL document CHEMBL5291721, “A preclinical secondary pharmacology resource illuminates target-adverse drug reaction associations of marketed drugs” (Nat Commun, 2023).

Tests used:
[1] = target: T1, Prostaglandin G/H synthase 1 (Homo sapiens, UniProt P23219); assay type: functional
[2] = target: 5-hydroxytryptamine receptor 2B (Homo sapiens, UniProt P41595); assay type: functional, cell-based
[3] = target: T2, Muscarinic acetylcholine receptor M2 (Homo sapiens, UniProt P08172)
T2 sequence (P08172 whole entry): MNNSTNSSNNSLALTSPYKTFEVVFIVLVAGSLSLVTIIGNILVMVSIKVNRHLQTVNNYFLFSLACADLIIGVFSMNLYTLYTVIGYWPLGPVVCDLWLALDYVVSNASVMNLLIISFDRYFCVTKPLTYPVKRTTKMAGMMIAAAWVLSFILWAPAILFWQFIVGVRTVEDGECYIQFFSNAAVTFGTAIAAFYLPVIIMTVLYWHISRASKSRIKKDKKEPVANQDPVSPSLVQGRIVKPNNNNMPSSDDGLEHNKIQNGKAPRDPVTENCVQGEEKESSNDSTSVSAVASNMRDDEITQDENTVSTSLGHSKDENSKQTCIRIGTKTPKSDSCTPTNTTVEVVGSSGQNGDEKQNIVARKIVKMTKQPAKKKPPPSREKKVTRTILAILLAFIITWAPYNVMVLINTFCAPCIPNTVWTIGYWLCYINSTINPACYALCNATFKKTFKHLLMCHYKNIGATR

[4] = target: T3, 5-hydroxytryptamine receptor 1A (Homo sapiens, UniProt P08908)
T3 sequence (P08908 whole entry): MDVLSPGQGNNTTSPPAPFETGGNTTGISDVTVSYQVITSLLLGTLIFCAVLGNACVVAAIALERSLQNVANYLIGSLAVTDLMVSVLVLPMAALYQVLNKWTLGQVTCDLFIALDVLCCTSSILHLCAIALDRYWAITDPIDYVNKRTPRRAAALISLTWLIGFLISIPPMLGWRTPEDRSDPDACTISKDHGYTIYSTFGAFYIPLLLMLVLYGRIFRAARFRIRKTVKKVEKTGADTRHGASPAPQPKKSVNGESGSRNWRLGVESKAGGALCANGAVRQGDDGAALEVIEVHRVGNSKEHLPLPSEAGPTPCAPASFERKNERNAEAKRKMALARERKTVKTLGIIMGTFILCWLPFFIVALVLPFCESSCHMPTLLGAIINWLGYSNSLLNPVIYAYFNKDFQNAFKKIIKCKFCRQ

[5] = target: T1, Prostaglandin G/H synthase 1; assay type: functional; remark: listed apart in the source
[6] = target: 3',5'-cyclic-AMP phosphodiesterase 4A (Homo sapiens, UniProt P27815); assay type: functional
Sequence of 3',5'-cyclic-AMP phosphodiesterase 4A (P27815 whole entry): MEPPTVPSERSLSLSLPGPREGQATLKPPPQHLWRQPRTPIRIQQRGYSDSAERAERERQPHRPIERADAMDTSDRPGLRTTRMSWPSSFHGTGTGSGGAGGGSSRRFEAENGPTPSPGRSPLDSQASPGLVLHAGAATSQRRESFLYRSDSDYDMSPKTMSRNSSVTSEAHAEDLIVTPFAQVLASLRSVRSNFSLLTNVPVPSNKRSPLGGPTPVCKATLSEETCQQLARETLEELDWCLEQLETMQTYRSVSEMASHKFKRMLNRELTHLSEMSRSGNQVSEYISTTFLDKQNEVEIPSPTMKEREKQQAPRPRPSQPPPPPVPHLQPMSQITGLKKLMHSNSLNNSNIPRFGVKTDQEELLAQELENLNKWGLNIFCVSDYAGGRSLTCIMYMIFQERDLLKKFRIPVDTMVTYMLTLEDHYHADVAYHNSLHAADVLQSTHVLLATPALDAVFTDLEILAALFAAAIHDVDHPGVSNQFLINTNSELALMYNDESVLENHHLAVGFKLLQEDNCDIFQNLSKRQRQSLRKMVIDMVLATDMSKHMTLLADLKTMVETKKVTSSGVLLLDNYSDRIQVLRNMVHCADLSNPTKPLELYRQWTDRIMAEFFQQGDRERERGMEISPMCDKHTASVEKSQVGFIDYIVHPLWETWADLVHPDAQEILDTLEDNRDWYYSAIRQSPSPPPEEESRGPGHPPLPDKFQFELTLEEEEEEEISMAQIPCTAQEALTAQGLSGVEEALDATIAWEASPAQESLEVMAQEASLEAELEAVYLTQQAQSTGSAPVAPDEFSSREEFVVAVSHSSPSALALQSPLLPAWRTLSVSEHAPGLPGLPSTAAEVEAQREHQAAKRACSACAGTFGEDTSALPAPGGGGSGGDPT

Bile salt export pump = Bile salt export pump (Homo sapiens, UniProt O95342); assay type: functional
Sequence of Bile salt export pump (O95342 whole entry): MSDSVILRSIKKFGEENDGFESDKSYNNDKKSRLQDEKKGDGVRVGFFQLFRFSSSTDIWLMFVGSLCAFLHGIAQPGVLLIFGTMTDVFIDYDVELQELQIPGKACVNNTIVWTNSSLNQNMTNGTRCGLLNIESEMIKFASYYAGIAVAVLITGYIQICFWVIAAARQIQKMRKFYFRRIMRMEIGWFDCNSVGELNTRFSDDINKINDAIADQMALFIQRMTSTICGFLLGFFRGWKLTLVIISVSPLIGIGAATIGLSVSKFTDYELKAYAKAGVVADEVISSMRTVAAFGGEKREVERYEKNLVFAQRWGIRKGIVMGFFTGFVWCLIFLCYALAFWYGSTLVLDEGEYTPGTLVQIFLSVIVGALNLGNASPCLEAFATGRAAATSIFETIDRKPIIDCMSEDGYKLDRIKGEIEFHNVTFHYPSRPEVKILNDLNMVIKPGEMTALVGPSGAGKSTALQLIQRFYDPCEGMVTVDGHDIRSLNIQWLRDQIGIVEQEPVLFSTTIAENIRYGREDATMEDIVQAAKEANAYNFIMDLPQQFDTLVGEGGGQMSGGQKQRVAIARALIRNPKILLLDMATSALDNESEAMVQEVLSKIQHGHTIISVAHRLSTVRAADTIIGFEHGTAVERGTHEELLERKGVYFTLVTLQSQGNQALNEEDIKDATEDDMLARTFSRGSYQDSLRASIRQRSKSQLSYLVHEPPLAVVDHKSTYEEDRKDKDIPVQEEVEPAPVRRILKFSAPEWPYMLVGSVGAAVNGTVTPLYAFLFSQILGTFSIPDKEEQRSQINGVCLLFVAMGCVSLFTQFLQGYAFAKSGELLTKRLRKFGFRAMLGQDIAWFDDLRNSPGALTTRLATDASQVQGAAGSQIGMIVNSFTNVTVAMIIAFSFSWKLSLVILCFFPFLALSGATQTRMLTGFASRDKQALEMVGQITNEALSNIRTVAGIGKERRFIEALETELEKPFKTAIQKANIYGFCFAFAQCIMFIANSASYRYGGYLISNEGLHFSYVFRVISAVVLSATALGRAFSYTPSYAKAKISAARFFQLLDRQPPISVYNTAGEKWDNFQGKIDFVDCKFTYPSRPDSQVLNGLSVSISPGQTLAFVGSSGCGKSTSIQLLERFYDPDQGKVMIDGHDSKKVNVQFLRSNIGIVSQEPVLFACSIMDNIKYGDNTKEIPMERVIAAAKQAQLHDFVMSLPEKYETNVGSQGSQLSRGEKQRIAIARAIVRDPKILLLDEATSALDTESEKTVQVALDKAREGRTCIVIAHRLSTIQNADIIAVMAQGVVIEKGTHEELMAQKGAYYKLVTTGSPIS

D(3) dopamine receptor = D(3) dopamine receptor (Homo sapiens, UniProt P35462)
[7] = target: Voltage-gated inwardly rectifying potassium channel KCNH2 (Homo sapiens, UniProt Q12809); assay type: functional; details: read-out: AC50
D(1A) dopamine receptor = D(1A) dopamine receptor (Homo sapiens, UniProt P21728)
Thromboxane A2 receptor [8] = target: T4, Thromboxane A2 receptor (Homo sapiens, UniProt P21731); assay type: functional, cell-based
T4 sequence (P21731 whole entry): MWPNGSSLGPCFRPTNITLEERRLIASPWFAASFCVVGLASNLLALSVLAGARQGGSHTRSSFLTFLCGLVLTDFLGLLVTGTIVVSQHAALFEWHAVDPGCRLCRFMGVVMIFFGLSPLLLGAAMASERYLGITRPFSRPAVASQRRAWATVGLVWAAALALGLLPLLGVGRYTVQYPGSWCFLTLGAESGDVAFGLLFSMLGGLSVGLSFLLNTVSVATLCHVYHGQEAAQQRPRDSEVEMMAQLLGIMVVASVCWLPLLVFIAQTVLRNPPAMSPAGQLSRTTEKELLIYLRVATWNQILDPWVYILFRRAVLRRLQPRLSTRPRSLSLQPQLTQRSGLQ

Mu-type opioid receptor = Mu-type opioid receptor (Homo sapiens, UniProt P35372)
Sequence of Mu-type opioid receptor (P35372 whole entry): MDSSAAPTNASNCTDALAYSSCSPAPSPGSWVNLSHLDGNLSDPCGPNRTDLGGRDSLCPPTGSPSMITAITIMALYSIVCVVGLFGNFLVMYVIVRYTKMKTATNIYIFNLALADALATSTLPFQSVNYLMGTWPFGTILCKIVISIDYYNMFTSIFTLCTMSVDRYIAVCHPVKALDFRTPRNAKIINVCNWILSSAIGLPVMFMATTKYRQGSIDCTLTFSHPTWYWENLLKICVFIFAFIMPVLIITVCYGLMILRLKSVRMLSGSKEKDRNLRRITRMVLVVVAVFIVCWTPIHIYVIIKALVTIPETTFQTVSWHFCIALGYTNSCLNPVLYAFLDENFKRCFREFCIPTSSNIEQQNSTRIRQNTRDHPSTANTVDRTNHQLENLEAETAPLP

[9] = target: T5, Amine oxidase [flavin-containing] A (Homo sapiens, UniProt P21397); assay type: functional
T5 sequence (P21397 whole entry): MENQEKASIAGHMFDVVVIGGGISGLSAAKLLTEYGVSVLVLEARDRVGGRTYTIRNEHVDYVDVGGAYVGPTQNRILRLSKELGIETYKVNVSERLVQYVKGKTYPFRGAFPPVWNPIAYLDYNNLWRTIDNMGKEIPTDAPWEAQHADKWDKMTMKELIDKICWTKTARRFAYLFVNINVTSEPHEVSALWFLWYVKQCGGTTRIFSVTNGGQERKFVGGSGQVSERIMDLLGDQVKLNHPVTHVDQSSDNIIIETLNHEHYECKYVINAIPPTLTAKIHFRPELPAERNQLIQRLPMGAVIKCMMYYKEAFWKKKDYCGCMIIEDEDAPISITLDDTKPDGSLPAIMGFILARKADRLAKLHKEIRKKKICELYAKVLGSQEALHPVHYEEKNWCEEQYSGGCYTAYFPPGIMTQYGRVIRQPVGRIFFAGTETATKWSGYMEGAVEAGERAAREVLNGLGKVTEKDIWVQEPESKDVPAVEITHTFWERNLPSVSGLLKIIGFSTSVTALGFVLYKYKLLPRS

[10] = target: Sodium-dependent noradrenaline transporter (Homo sapiens, UniProt P23975)
[11] = target: cGMP-inhibited 3',5'-cyclic phosphodiesterase 3A (Homo sapiens, UniProt Q14432); assay type: functional
[12] = target: Sodium-dependent dopamine transporter (Homo sapiens, UniProt Q01959)
Acetylcholinesterase = Acetylcholinesterase (Homo sapiens, UniProt P22303); assay type: functional
Sequence of Acetylcholinesterase (P22303 whole entry): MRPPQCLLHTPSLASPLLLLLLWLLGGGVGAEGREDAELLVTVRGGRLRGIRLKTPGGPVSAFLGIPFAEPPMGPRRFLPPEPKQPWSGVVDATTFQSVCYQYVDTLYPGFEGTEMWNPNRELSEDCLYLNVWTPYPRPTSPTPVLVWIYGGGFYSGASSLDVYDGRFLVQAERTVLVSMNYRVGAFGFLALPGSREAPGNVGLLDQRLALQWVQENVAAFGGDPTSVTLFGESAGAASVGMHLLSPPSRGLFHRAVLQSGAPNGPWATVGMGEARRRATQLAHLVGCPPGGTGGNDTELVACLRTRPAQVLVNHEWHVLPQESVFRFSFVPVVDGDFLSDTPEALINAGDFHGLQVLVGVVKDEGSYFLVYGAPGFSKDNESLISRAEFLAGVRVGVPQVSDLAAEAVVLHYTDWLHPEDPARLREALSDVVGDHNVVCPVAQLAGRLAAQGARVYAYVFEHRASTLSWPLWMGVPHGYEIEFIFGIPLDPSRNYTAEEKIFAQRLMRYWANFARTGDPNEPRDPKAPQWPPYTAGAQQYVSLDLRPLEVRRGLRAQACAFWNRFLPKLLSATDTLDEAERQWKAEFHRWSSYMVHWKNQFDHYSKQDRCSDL

Histamine H3 receptor = Histamine H3 receptor (Homo sapiens, UniProt Q9Y5N1)
Sequence of Histamine H3 receptor (Q9Y5N1 whole entry): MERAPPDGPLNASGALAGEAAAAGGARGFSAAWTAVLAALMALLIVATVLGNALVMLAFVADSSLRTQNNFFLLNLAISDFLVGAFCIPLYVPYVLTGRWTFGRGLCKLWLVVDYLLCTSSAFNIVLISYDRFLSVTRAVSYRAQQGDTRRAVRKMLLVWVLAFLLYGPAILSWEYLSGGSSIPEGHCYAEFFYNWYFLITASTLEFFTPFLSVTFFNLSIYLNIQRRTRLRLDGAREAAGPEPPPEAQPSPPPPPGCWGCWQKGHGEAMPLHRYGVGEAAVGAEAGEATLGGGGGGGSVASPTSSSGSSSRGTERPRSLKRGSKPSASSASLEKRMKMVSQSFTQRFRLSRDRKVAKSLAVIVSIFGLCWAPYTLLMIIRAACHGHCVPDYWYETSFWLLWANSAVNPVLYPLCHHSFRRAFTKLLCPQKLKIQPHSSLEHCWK

Thromboxane A2 receptor [13] = target: T4, Thromboxane A2 receptor; assay type: functional, cell-based; remark: listed apart in the source
Prothrombin = Prothrombin (Homo sapiens, UniProt P00734); assay type: functional
Further: assay procedure not described here.

Sequence of 5-hydroxytryptamine receptor 2B (P41595 whole entry): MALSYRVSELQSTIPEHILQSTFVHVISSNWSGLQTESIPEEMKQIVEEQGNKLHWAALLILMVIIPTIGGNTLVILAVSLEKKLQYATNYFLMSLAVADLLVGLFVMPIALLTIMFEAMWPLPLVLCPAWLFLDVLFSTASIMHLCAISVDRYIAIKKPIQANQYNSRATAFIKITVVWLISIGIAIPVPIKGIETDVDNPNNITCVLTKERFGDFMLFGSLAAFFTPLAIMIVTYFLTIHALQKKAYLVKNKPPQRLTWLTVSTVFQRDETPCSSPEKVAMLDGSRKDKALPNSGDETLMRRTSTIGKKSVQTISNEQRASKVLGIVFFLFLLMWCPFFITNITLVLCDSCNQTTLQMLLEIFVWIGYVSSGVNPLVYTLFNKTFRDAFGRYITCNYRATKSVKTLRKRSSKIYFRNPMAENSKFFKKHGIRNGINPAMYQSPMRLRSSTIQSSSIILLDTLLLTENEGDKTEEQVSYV
T1 sequence (P23219 whole entry): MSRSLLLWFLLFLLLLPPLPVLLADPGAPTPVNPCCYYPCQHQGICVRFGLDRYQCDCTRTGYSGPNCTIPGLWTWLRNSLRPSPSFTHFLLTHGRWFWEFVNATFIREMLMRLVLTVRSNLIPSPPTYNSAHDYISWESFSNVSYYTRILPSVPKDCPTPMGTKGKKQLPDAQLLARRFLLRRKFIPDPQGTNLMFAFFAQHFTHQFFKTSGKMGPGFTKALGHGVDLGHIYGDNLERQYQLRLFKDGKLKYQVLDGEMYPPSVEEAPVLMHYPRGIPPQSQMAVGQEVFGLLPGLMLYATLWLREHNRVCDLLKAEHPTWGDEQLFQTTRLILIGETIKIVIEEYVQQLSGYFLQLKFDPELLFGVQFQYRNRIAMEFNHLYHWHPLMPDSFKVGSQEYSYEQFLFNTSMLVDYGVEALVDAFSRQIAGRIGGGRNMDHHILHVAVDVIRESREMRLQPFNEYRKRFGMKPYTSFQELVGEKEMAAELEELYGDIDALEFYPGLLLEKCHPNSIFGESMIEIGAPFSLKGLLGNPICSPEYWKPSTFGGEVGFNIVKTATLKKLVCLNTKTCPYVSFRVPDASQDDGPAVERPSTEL

SMILES | AC50 [1] [µM] | AC50 [2] [µM] | AC50 [3] [µM] | AC50 [4] [µM] | AC50 [5] [µM] | AC50 [6] [µM] | AC50 (Bile salt export pump) [µM] | AC50 (D(3) dopamine receptor) [µM] | AC50 [7] [µM] | AC50 (D(1A) dopamine receptor) [µM] | AC50 (Thromboxane A2 receptor [8]) [µM] | AC50 (Mu-type opioid receptor) [µM] | AC50 [9] [µM] | AC50 [10] [µM] | AC50 [11] [µM] | AC50 [12] [µM] | AC50 (Acetylcholinesterase) [µM] | AC50 (Histamine H3 receptor) [µM] | AC50 (Thromboxane A2 receptor [13]) [µM] | AC50 (Prothrombin) [µM]
Cc1ccc([C@@H]2O[C@H](CO)[C@@H](O)[C@H](O)[C@H]2O)cc1Cc1ccc(-c2ccc(F)cc2)s1 [CANAGLIFLOZIN ANHYDROUS] | > 30 | > 30 | > 30 | > 30 | > 30 | > 30 | 38 | > 30 | > 30 | > 30 | > 30 | > 30 | > 30 | > 30 | > 30 | 3.54 | > 30 | > 30 | > 30 | > 30
O=C(O)CCCc1ccc(N(CCCl)CCCl)cc1 [CHLORAMBUCIL] | > 30 | > 30 | > 30 | > 30 | > 30 | > 30 | 270 | > 30 | > 30 | > 30 | > 30 | > 30 | > 30 | > 30 | > 30 | > 30 | > 30 | > 30 | > 30 | > 30
Cn1c(=O)c2c(ncn2CC(O)CO)n(C)c1=O (stereo not given) [DYPHYLLINE] | > 30 | > 30 | > 30 | > 30 | > 30 | > 30 | > 300 | > 30 | > 30 | > 30 | > 30 | > 30 | > 30 | > 30 | > 30 | > 30 | > 30 | > 30 | > 30 | > 30
C#Cc1cccc(Nc2ncnc3cc(OCCOC)c(OCCOC)cc23)c1 [ERLOTINIB] | 0.0388 | > 30 | 13.2 | > 30 | > 30 | > 30 | 6.1 | > 30 | > 30 | > 10 | > 30 | 3.82 | > 30 | > 30 | > 30 | > 30 | > 30 | > 30 | > 30 | > 30
CCC(=O)O[C@@H](O[P@](=O)(CCCCc1ccccc1)CC(=O)N1C[C@H](C2CCCCC2)C[C@H]1C(=O)O)C(C)C [FOSINOPRIL] | > 30 | > 30 | > 30 | > 30 | > 30 | > 30 | 11 | > 30 | > 30 | > 30 | > 30 | > 30 | > 30 | > 30 | > 30 | > 30 | > 30 | > 30 | > 30 | > 30
CC(=O)/N=c1/sc(S(N)(=O)=O)nn1C [METHAZOLAMIDE] | > 30 | > 30 | > 30 | > 30 | > 30 | > 30 | > 300 | > 30 | > 30 | > 30 | > 30 | > 30 | > 30 | > 30 | > 30 | > 30 | > 30 | > 30 | > 30 | > 30
CCOc1ccc2ccccc2c1C(=O)N[C@@H]1C(=O)N2[C@@H]1SC(C)(C)[C@@H]2C(=O)O [NAFCILLIN] | > 30 | > 30 | > 30 | > 30 | > 30 | > 30 | 40 | > 30 | > 30 | > 30 | > 30 | > 30 | > 30 | > 30 | > 30 | > 30 | > 30 | > 30 | > 30 | > 30
CC(C)[N+](C)(CCOC(=O)C1c2ccccc2Oc2ccccc21)C(C)C [PROPANTHELINE] | > 30 | > 30 | 0.003 | > 30 | > 30 | > 30 | > 300 | > 30 | 2 | > 30 | > 30 | > 30 | > 30 | > 30 | > 30 | > 30 | > 30 | > 30 | > 30 | > 30
CNC(=O)c1cc(Oc2ccc(NC(=O)Nc3ccc(Cl)c(C(F)(F)F)c3)c(F)c2)ccn1 [REGORAFENIB] | > 30 | > 30 | > 30 | 1.42 | 17.5 | > 30 | 3 | > 30 | > 10 | 5.61 | 6.35 | 4.43 | > 30 | 20 | > 30 | 1.04 | > 30 | > 30 | > 30 | > 30
NC(=O)NS(=O)(=O)c1ccc(N)cc1 [SULFACARBAMIDE] | > 30 | > 30 | > 30 | > 30 | > 30 | > 30 | > 300 | > 30 | > 30 | > 30 | > 30 | > 30 | > 30 | > 30 | > 30 | > 30 | > 30 | > 30 | > 30 | > 30
